Source: patent US9096624B2 (OSI Pharmaceuticals, LLC, priority 2009, dated 2015)
Counter-ions that a name gives are not always drawn.

Molecular target: FAK (Homo sapiens, UniProt Q05397)
Test: biochemical

Chain of FAK (Q05397 whole entry): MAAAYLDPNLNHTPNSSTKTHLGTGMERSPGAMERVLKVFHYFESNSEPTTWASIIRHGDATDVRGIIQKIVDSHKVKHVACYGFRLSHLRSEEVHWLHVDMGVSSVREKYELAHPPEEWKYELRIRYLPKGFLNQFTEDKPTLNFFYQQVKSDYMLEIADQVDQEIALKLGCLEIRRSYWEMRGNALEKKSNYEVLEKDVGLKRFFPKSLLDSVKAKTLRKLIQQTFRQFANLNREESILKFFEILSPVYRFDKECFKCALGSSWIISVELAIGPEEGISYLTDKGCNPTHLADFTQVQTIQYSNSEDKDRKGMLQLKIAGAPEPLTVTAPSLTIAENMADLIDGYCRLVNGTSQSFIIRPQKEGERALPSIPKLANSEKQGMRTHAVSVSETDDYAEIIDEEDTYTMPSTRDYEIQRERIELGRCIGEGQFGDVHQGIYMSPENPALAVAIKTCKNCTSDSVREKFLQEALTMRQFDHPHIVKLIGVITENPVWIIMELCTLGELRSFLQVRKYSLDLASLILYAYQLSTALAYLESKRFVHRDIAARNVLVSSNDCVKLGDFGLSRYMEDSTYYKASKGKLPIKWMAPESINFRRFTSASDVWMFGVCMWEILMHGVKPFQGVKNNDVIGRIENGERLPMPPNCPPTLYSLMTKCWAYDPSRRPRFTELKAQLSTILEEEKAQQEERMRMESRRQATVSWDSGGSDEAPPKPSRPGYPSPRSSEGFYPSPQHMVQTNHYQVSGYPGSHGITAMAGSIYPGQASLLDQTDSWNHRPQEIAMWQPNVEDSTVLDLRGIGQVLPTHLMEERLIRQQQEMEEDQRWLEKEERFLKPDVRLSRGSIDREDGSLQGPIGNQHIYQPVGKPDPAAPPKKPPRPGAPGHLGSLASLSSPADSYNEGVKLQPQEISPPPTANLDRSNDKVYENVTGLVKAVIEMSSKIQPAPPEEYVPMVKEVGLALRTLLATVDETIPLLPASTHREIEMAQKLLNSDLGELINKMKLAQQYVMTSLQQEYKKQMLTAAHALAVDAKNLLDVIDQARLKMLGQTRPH

Row | SMILES | IC50 [nM]
1 | CCOP(=O)(O)C1CCC(c2ccc(Nc3nc(Nc4ccccc4OC)ncc3C(F)(F)F)c3c2CN(C)C3=O)CC1 (mixture of isomers) [Example 255, Ethyl hydrogen {4-[7-({2-[(2-methoxyphenyl)amino]-5-(trifluoromethyl)pyrimidin-4-yl}amino)-2-methyl-1-oxo-2,3-dihydro-1H-isoindol-4-yl]cyclohexyl}phosphonate trifluoroacetate] | < 1000
2 | CCOP(=O)(Cc1ccc(Nc2ncc(C(F)(F)F)c(Nc3ccc([C@H]4CC[C@@H](C(=O)O)CC4)c4c3C(=O)N(C)C4)n2)c(OC)c1)OCC [Example 89, Cis-4-(7-{[2-({4-[(diethoxyphosphoryl)methyl]-2-methoxyphenyl}amino)-5-(trifluoromethyl)pyrimidin-4-yl]amino}-2-methyl-1-oxo-2,3-dihydro-1H-isoindol-4-yl)cyclohexanecarboxylic acid] | < 1000
3 | CCOP(=O)(Cc1ccc(Nc2ncc(C(F)(F)F)c(Nc3ccc([C@H]4CC[C@H](O)CC4)c4c3C(=O)N(C)C4)n2)cc1)OCC [Example 91, Diethyl (4-{[4-{[7-(trans-4-hydroxycyclohexyl)-2-methyl-3-oxo-2,3-dihydro-1H-isoindol-4-yl]amino}-5-(trifluoromethyl)pyrimidin-2-yl]amino}benzyl)phosphonate] | < 1000
4 | CCOP(=O)(Cc1ccc(Nc2ncc(C(F)(F)F)c(Nc3ccc([C@H]4CC[C@H](O)CC4)c4c3C(=O)N(C)C4)n2)c(OC)c1)OCC [Example 93, Diethyl (4-{[4-{[7-(trans-4-hydroxycyclohexyl)-2-methyl-3-oxo-2,3-dihydro-1H-isoindol-4-yl]amino}-5-(trifluoromethyl)pyrimidin-2-yl]amino}-3-methoxybenzyl) phosphonate hydrochloride] | < 1000
5 | CCOP(=O)(Cc1ccc(Nc2ncc(C(F)(F)F)c(Nc3ccc([C@H]4CC[C@@H](N5CCN(C)CC5)CC4)c4c3C(=O)N(C)C4)n2)c(OC)c1)OCC [Example 95, Diethyl (3-methoxy-4-{[4-({2-methyl-7-[cis-4-(4-methylpiperazin-1-yl)cyclohexyl]-3-oxo-2,3-dihydro-1H-isoindol-4-yl}amino)-5-(trifluoromethyl)pyrimidin-2-yl]amino}benzyl)phosphonate] | < 1000
6 | CCOP(=O)(Cc1ccc(Nc2ncc(C(F)(F)F)c(Nc3ccc(-c4cnn(CCOC)c4)c4c3C(=O)N(C)C4)n2)cc1)OCC [Example 97, Diethyl (4-{[4-({7-[1-(2-methoxyethyl)-1H-pyrazol-4-yl]-2-methyl-3-oxo-2,3-dihydro-1H-isoindol-4-yl}amino)-5-(trifluoromethyl)pyrimidin-2-yl]amino}benzyl)phosphonate] | < 1000
7 | CCOP(=O)(Cc1ccc(Nc2ncc(C(F)(F)F)c(Nc3ccc(Br)cc3C(=O)NC)n2)cc1)OCC [Example 106, Diethyl (4-{[4-{[4-bromo-2-(methylcarbamoyl)phenyl]amino}-5-(trifluoromethyl)pyrimidin-2-yl]amino}benzyl)phosphonate] | < 1000
8 | CCOP(=O)(Cc1ccc(Nc2ncc(C(F)(F)F)c(Nc3ccccc3C(=O)NC)n2)c(Br)c1)OCC [Example 108, Diethyl (3-bromo-4-{[4-{[2-(methylcarbamoyl)phenyl]amino}-5-(trifluoromethyl)pyrimidin-2-yl]amino}benzyl) phosphonate] | < 1000
9 | CCOP(=O)(Cc1ccc(Nc2ncc(C(F)(F)F)c(Nc3ccccc3C(=O)N(C)C)n2)cc1)OCC [Example 111, Diethyl (4-{[4-{[2-(dimethylcarbamoyl)phenyl]amino}-5-(trifluoromethyl)pyrimidin-2-yl]amino}benzyl)phosphonate] | < 1000
10 | CCOP(=O)(Cc1ccc(Nc2ncc(C(F)(F)F)c(Nc3ccccc3C(=O)N(C)C)n2)c(OC)c1)OCC [Example 112, Diethyl (4-{[4-{[2-(dimethylcarbamoyl)phenyl]amino}-5-(trifluoromethyl)pyrimidin-2-yl]amino}-3-methoxybenzyl)phosphonate] | < 1000
11 | CCOP(=O)(Cc1ccc(Nc2ncc(C(F)(F)F)c(Nc3ccc(C(=O)OC)c4c3C(=O)N(C)C4)n2)cc1)OCC [Example 118, Methyl 7-{[2-({4-[(diethoxyphosphoryl)methyl]phenyl}amino)-5-(trifluoromethyl)pyrimidin-4-yl]amino}-2-methyl-1-oxo-2,3-dihydro-1H-isoindole-4-carboxylate] | < 1000
12 | CCOP(=O)(O)Cc1ccc(Nc2ncc(C(F)(F)F)c(Nc3cccc4c3C(=O)N(C)C4)n2)c(OC)c1 [Example 120, Ethyl hydrogen [3-methoxy-4-({4-[(2-methyl-3-oxo-2,3-dihydro-1H-isoindol-4-yl)amino]-5-(trifluoromethyl)pyrimidin-2-yl}amino)benzyl]phosphonate] | < 1000
13 | CCOP(=O)(Cc1ccc(Nc2ncc(C(F)(F)F)c(Nc3ccc(N4CCN5CCOCC5C4)c4c3C(=O)N(C)C4)n2)cc1)OCC (stereo not drawn) [Example 121, Diethyl (4-{[4-{[7-(hexahydropyrazino[2,1-c][1,4]oxazin-8(1H)-yl)-2-methyl-3-oxo-2,3-dihydro-1H-isoindol-4-yl]amino}-5-(trifluoromethyl)pyrimidin-2-yl]amino}benzyl)phosphonate] | < 1000
14 | CCOP(=O)(Cc1ccc(Nc2ncc(C(F)(F)F)c(Nc3ccc(N4CCN5CCOCC5C4)c4c3C(=O)N(C)C4)n2)c(OC)c1)OCC (stereo not drawn) [Example 122, Diethyl (4-{[4-{[7-(hexahydropyrazino[2,1-c][1,4]oxazin-8(1H)-yl)-2-methyl-3-oxo-2,3-dihydro-1H-isoindol-4-yl]amino}-5-(trifluoromethyl)pyrimidin-2-yl]amino}-3-methoxybenzyl)phosphonate] | < 1000
15 | CCOP(=O)(Cc1ccc(Nc2ncc(C(F)(F)F)c(Nc3ccc(Br)c4ccn(C)c(=O)c34)n2)cc1)OCC [Example 123, Diethyl [4-({4-[(5-bromo-2-methyl-1-oxo-1,2-dihydroisoquinolin-8-yl)amino]-5-(trifluoromethyl)pyrimidin-2-yl}amino)benzyl]phosphonate] | < 1000
16 | CCCn1cc(-c2ccc(Nc3nc(Nc4ccc(CP(=O)(OCC)OCC)cc4)ncc3C(F)(F)F)c(C(=O)NC)c2)cn1 [Example 126, Diethyl (4-{[4-{[2-(methylcarbamoyl)-4-(1-propyl-1H-pyrazol-4-yl)phenyl]amino}-5-(trifluoromethyl)pyrimidin-2-yl]amino}benzyl)phosphonate] | < 1000
17 | CCOP(=O)(Cc1ccc(Nc2ncc(C(F)(F)F)c(Nc3ccc(-c4cnn(CC(C)(C)O)c4)cc3C(=O)NC)n2)cc1)OCC [Example 127] | < 1000
18 | CCOP(=O)(Cc1cc(OC)c(Nc2ncc(C(F)(F)F)c(Nc3ccccc3C(=O)NC)n2)cc1F)OCC [Example 130, Diethyl (2-fluoro-5-methoxy-4-{[4-{[2-(methylcarbamoyl)phenyl]amino}-5-(trifluoromethyl)pyrimidin-2-yl]amino}benzyl)phosphonate] | < 1000
19 | CCOP(=O)(OCC)C(O)c1ccc(Nc2ncc(C(F)(F)F)c(Nc3ccccc3C(=O)NC)n2)cc1 (stereo not drawn) [Example 133, Diethyl [hydroxy(4-{[4-{[2-(methylcarbamoyl)phenyl]amino}-5-(trifluoromethyl)pyrimidin-2-yl]amino}phenyl)methyl]phosphonate trifluoroacetate] | < 1000
20 | CCOP(=O)(Cc1ccc(Nc2ncc(C(F)(F)F)c(Nc3ccc(-c4cnn(CC(C)C)c4)cc3C(=O)NC)n2)cc1)OCC [Example 134, Diethyl (4-{[4-({2-(methylcarbamoyl)-4-[1-(2-methylpropyl)-1H-pyrazol-4-yl]phenyl}amino)-5-(trifluoromethyl)pyrimidin-2-yl]amino}benzyl)phosphonate] | < 1000
21 | CCOP(=O)(Cc1ccc(Nc2ncc(C(F)(F)F)c(Nc3ccc(-c4cnn(C[C@H](O)CO)c4)cc3C(=O)NC)n2)cc1)OCC [Example 135, Diethyl (4-{[4-{[4-{1-[(2S)-2,3-dihydroxypropyl]-1H-pyrazol-4-yl}-2-(methylcarbamoyl)phenyl]amino}-5-(trifluoromethyl)pyrimidin-2-yl]amino}benzyl)phosphonate] | < 1000
22 | CCOP(=O)(Cc1ccc(Nc2ncc(C(F)(F)F)c(Nc3ccc(-c4cnn(C5CC(O)C5)c4)cc3C(=O)NC)n2)cc1)OCC (stereo not drawn) [Example 136, Diethyl (4-{[4-({4-[1-(3-hydroxycyclobutyl)-1H-pyrazol-4-yl]-2-(methylcarbamoyl)phenyl}amino)-5-(trifluoromethyl)pyrimidin-2-yl]amino}benzyl)phosphonate] | < 1000
23 | CCOP(=O)(Cc1ccc(Nc2ncc(C(F)(F)F)c(Nc3ccc(-c4cnn(CCO)c4)cc3C(=O)NC)n2)cc1)OCC [Example 145, Diethyl (4-{[4-({4-[1-(2-hydroxyethyl)-1H-pyrazol-4-yl]-2-(methylcarbamoyl)phenyl}amino)-5-(trifluoromethyl)pyrimidin-2-yl]amino}benzyl)phosphonate] | < 1000
24 | CCOP(=O)(Cc1cc(F)c(Nc2ncc(C(F)(F)F)c(Nc3ccccc3C(=O)NC)n2)c(OC)c1)OCC [Example 146, Diethyl (3-fluoro-5-methoxy-4-{[4-{[2-(methylcarbamoyl)phenyl]amino}-5-(trifluoromethyl)pyrimidin-2-yl]amino}benzyl)phosphonate] | < 1000
25 | CCOP(=O)(Cc1ccc(Nc2ncc(C(F)(F)F)c(Nc3ccc(C#N)cc3C(=O)NC)n2)cc1)OCC [Example 150, Diethyl (4-{[4-{[4-cyano-2-(methylcarbamoyl)phenyl]amino}-5-(trifluoromethyl)pyrimidin-2-yl]amino}benzyl)phosphonate] | < 1000
26 | CCNC(=O)c1ccccc1Nc1nc(Nc2ccc(CP(=O)(OCC)OCC)cc2)ncc1C(F)(F)F [Example 152, Diethyl (4-{[4-{[2-(ethylcarbamoyl)phenyl]amino}-5-(trifluoromethyl)pyrimidin-2-yl]amino}benzyl)phosphonate] | < 1000
27 | CCNC(=O)c1ccccc1Nc1nc(Nc2ccc(CP(=O)(OCC)OCC)cc2OC)ncc1C(F)(F)F [Example 153, Diethyl (4-{[4-{[2-(ethylcarbamoyl)phenyl]amino}-5-(trifluoromethyl)pyrimidin-2-yl]amino}-3-methoxybenzyl)phosphonate] | < 1000
